{"source": "patent US20220000848A1", "about": "“APPLICATION OF CHIDAMIDE” (SHENZHEN CHIPSCREEN BIOSCIENCES CO., LTD., priority 2018, published 2022)", "key": {"[1]": {"tested_on": "relapsed or refractory follicular lymphoma (FL) accompanied with specific epigenetic regulatory gene mutation", "assay": "Multicenter, single-arm, open clinical trial of Chidamide tablet in relapsed or refractory follicular lymphoma with CREBBP and/or EP300 mutation (pre-test)", "format": "in vivo, human", "conditions": "11 patients accompanied with epigenetic mutation B-NHL, oral 30 mg 2 times a week", "procedure": "(§1) Test drugs: Chidamide tablets: off-white tablets, 5 mg/tablet. Produced by Shenzhen Chipscreen Biosciences Co., Ltd.\nDosage regimen: 2 times a week, 30 mg each time, the interval of two administrations should not be less than 3 days (for example, on Monday and Thursday, Tuesday and Friday, Wednesday and Saturday, etc.). The administration was performed 30 minutes after breakfast, every 3 weeks was a treatment cycle. During the entire study, all subjects should unceasingly receive the treatment under study until the appearance of any one of the following conditions: progression of disease, intolerable adverse reaction, death, withdrawal from treatment, withdrawal of the informed consent or loss to follow-up. […]\n4. Having CREBBP and/or EP300 specific genetic mutation that was confirmed by second-generation sequencing;\nPatients were orally administrated with Chidamide according to the regimen, and the following safety- and efficacy follow-ups were performed at the specified times:\nFollow-up interval: Efficacy assessment was carried out once every 6 weeks; and efficacy follow-up was performed at the end of treatment.\nEfficacy evaluation means: Evaluation of lymph nodes and organ lesions, skin lesions was performed by imaging methods (CT or PET/CT), clinical examination, bone marrow puncture and biopsy. The imaging methods used for patients must be the same at all follow-up points. […]"}, "[2]": {"tested_on": "relapsed or refractory B cell lymphoma", "assay": "Phase II clinical trial of Chidamide monotherapy in relapsed or refractory B cell lymphoma", "format": "in vivo, human", "conditions": "patients, oral 30 mg 2 times a week; 8 cases evaluated of 10 enrolled", "procedure": "as §1\nDosage regimen: 2 times a week, 30 mg each time, the interval of two administrations should not be less than 3 days (for example, on Monday and Thursday, Tuesday and Friday, Wednesday and Saturday, etc.). The administration was performed 30 minutes after breakfast, every 3 weeks was a treatment cycle. During the entire study, all subjects should unceasingly receive the treatment under study until the appearance of any one of the following conditions: progression of disease, intolerable adverse reaction, death, withdrawal from treatment, withdrawal of the informed consent or loss to follow-up.\nNumber of cases: Simon's optimal two-stage design was adopted, 72 patients were enrolled, and pathological subtypes included: follicular lymphoma (FL) grade 1, grade 2 or grade 3, marginal zone B-cell lymphoma (MALT), lymphoplasmacytic lymphoma (LPL), small lymphocyte B cell lymphoma (SLL), diffuse large B cell lymphoma (DLBCL).\nThe patients were orally administrated with Chidamide according to the aforementioned dosage regimen, and the safety- and efficacy evaluation were performed as required at the specified time.\nEfficacy evaluation time: efficacy evaluation was performed once every 6 weeks. […]"}}}
{"smiles": "Nc1cc(F)ccc1NC(=O)c1ccc(CNC(=O)/C=C/c2cccnc2)cc1", "note": "[Chidamide]", "values": [{"measurement": "CR", "setting": "[1]", "result": 36.3, "unit": "%"}, {"measurement": "ORR", "setting": "[1]", "result": 72.7, "unit": "%"}, {"measurement": "ORR", "setting": "[2]", "result": 37.5, "unit": "%"}, {"measurement": "benefit rate", "setting": "[2]", "result": 62.5, "unit": "%"}]}
